Like-named read-outs stand apart in the source and are kept apart here.
What was measured:
[1] = cited from earlier work
[2] = Metapristone metabolism in rat liver microsomes in the presence of specific CYP450 inhibitors; conditions: inhibitor 10 µM, metapristone 9 µM, male or female rat liver microsomes, 120 min
[3] = set-up: method as in PMID 22210121; conditions: cited from earlier work

| SMILES | effect of CYP inhibitor on metabolism rate of metapristone versus controls [2] | also measured |
| --- | --- | --- |
| CCN(CC)CCCC(C)Nc1ccnc2cc(Cl)ccc12 (centres unmarked) [Chloroquine] |  | V d ([1]; literature example, no reference given): 15,000 L |
| CCCn1c(=O)c2[nH]c(C34CC5CC(CC3C5)C4)nc2n(CCC)c1=O [Rolofylline] |  | V d [1]: 239 L |
| CC[C@H]1OC(=O)[C@@](C)(F)C(=O)[C@H](C)[C@@H](O[C@@H]2O[C@H](C)C[C@H](N(C)C)[C@H]2O)[C@](C)(OC)C[C@@H](C)C(=O)[C@H](C)[C@H]2N(CCCCn3cc(-c4cccc(N)c4)nn3)C(=O)O[C@]12C [Solithromycin] |  | V d [1]: > 500 L |
| CC(=O)N1CCN(c2ccc(OCC3COC(Cn4ccnc4)(c4ccc(Cl)cc4Cl)O3)cc2)CC1 (centres unmarked) [ketoconazole] | significantly prevented metapristone from degradation |  |
| CC#C[C@]1(O)CC[C@H]2[C@@H]3CCC4=CC(=O)CCC4=C3[C@@H](c3ccc(N(C)C)cc3)C[C@@]21C [mifepristone] |  | plasma protein binding rate [3]: 90% |
| C=C[C@H]1C[N@@]2CC[C@H]1C[C@@H]2[C@@H](O)c1ccnc2ccc(OC)cc12 [quinidine] | No significant differences |  |
| Nc1ccc(S(=O)(=O)Nc2ccnn2-c2ccccc2)cc1 [sulfaphenazole] | No significant differences |  |
| O=c1cc(-c2ccccc2)oc2c1ccc1ccccc12 [α-naphthoflavone] | significantly prevented metapristone from degradation |  |

Source: publication PMC5719405, “Sex-related pharmacokinetic differences and mechanisms of metapristone (RU486 metabolite)” (Scientific Reports, 2017)
